Source: US10800734B2, “Memantine compounds and their preparation and uses thereof” (Sunshine Lake Pharma Co., Ltd., priority 2016, dated 2020)
Read-outs that look alike come from different tables or passages of the source.

Tests used:
[1] = format: in vitro ADME; conditions: human, microsomes, 1 μM, pH 7.4
Description: (§1) Analytical LC/MS/MS systems: Agilent 1200 Series vacuum degasser, dual-injection pump, orifice autosampler, column incubator, charged spray ionization (ESI) source, and Agilent G6430 three-stage quadrupole mass spectrometer. The quantitative analysis is performed in the MRM mode, with the following MRM conversion parameters:
Analytical Agilent Poroshell HPH-C18: 2.1×50 mm, 2.7 μM column, 20 μL of sample was injected. Conditions: mobile phase with ammonium formate+0.1% formic acid (A) and methanol+2 mM ammonium formate+0.1% formic acid (B). The flow rate was 0.3 mL/min. The mobile phase gradient is as follows: […]
Agilent 6330 Series LC/MS/MS spectrometer was equipped with G1312A binary injection pump, G1367A automatic sampler and MS/MS detector; LC/MS/MS was used with ESI source. Suitable cationic model treatments and MRM conversion were used for each analyte using standard solution for optimal analysis. The Agilent Poroshell HPH-C18 column was used during the analysis with a specification of 100×4.6 mm I.D., 5 μM. The mobile phase included ammonium formate+0.1% formic acid (A) and methanol+2 mM ammonium formate+0.1% formic acid (B). The flow rate was 0.3 mL/min; the column temperature was maintained at 40° C.; 20 μL of sample was injected.
A human liver microsomal incubation system was used for the testing. The incubation mixtures included human or rat liver microsomes (0.5 mg protein/mL), the tested compound was provided at 1 μM. The compound was dissolved in DMSO and diluted with acetonitrile water and mixed with a mixture of liver microparticle potassium phosphate buffer solution (pH=7.4). The above operations were done on wet ice, and incubated in a thermostatic incubator at 37° C. At different time points (0, 60 and 120 min), ice-cold acetonitrile was added to terminate the reaction. NADPH was not added during the reaction, and the effect of esterase on its conversion was examined. Samples were stored at −80° C. until LC/MS/MS analysis was performed.
The conversion of the compounds of the disclosure to active adamantane compound, which is memantine in the human liver microsome was determined by LC/MS/MS.

[2] = In vivo pharmacokinetics after intramuscular administration in rats
Description: Legend format: tested compound/dose (mg/kg)/converted active adamantane compound, which is memantine.
as §1
Waters XBridge TMC18, 2.1×30 mm, 3.5 μM column; 20 μL of sample was injected in each run. Conditions: The mobile phase included […]+2 mM ammonium formate+0.1% formic acid (A) and methanol+2 mM ammonium formate+0.1% formic acid (B). The flow rate was 0.35 mL/min. The mobile phase gradient is as follows: […]
Additional instruments and reagents included Agilent 6330 Series LC/MS/MS spectrometer equipped with a G1312A Binary Injection Pump, G1367A autosampler and MS/MS Detector for analysis; LC/MS/MS spectrometer with ESI source. Suitable cationic model treatments and MRM conversion were used for each analyte using standard solution for optimal analysis. Waters XBridge TMC18 was used with specifications of 2.1×30 mm, 3.5 μM. The reaction was carried out with ammonium formate+2 mM ammonium formate+0.1% formic acid (A) and methanol+2 mM ammonium formate+0.1% formic acid (B). The flow rate was 0.35 mL/min; the column temperature was maintained at 40° C.; 10 μL of sample was injected.
This example conducted pharmacokinetic studies of various compounds of the present disclosure in rats. The compounds were subjected to pretreatment including grinding and sieving, and were then added to a mixture formed by dissolving and dispersing in Tween-20 and/or Span-20. The mixtures were uniformly dispersed and fixed. The suspensions were pulverized by a ball mill […]. Memantine (MJG, 17.5 mg/kg) or tested compounds (75 or 37.5 mg/kg) were administered by intramuscular administration. Whole blood was collected at 0.25, 1, 2, 5, 7, 24, 48, 72, 96, 120, 148 and 196 h, was centrifuged at 12,000 g for 2 minutes. Plasma was collected and stored at −20° C. or −70° C. until the LC/MS/MS analysis was performed.

[3] = rat, im, solution, 17.5 mg/kg, memantine in plasma

SMILES | Percentage of Remaining or Converted Active Adamantane Compound ([1]; 1 h) [%] | Percentage of Remaining or Converted Active Adamantane Compound ([1]; 2 h) [%] | T½ ([2]; suspension, 75 mg/kg, converted memantine in plasma) | AUC(0-t) [2, 3] [ng·h/mL] | Cmax [2, 3] [ng/mL] | Tmax [2, 3] [h] | half-life ([2]; rat, plasma, im, 17.5 mg/kg, solution, 17.5 mg/kg, memantine in plasma, read-out: T½ (converted)) [h] | T½ ([2]; solution, 17.5 mg/kg, memantine in plasma) [h]
CC12CC3CC(C)(C1)CC(NC(=O)OCOC(=O)Cc1cccc4ccccc14)(C3)C2 [Compound 1] | 108 | 101 | – | – | – | – | – | –
CC12CC3CC(C)(C1)CC(NC(=O)OCOC(=O)c1ccccc1)(C3)C2 [Compound 2] | 134 | 118 | too high to be measurable | – | – | – | – | –
CCCCCCCCCCCC(=O)OCOC(=O)NC12CC3CC(C)(CC(C)(C3)C1)C2 [Compound 3] | 35.6 | 35.6 | – | – | – | – | – | –
CCCCCCCCCCCCCCCC(=O)OCOC(=O)NC12CC3CC(C)(CC(C)(C3)C1)C2 [Compound 4] | 25.3 | 34 | – | – | – | – | – | –
CC12CC3CC(C)(C1)CC(N)(C3)C2 [MJG, memantine] | 98 | 98 | – | 11800 | 1940 | 1.33 | ~4 | 4
